Structures are written as SMILES. Counter-ions that a name gives are not always drawn.

For this experiment, the target named is Glycogen synthase kinase-3 beta (Homo sapiens, UniProt P49841). The experiment can be described thus: GSK3beta kinase inhibitor potency, dose response, biochemical, luminescence, cell-free homogeneous, retest (AID 434954).
Sequence of Glycogen synthase kinase-3 beta (P49841 whole entry): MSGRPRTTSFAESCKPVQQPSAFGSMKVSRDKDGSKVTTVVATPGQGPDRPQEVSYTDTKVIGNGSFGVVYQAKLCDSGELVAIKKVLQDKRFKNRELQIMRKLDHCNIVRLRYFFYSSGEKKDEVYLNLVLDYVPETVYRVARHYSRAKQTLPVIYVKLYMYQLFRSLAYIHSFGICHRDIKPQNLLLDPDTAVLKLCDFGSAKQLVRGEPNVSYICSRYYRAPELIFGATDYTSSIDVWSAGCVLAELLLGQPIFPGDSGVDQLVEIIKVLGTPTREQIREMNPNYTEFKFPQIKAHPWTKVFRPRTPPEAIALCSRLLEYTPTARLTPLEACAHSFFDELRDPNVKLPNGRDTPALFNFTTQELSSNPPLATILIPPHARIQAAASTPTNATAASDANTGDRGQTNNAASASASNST
For `CCN(CC)Cc1c(C(=O)NN=Cc2ccccn2)nnn1-c1nonc1N`, it took 9.91 µM to reach a half-maximal effect (EC50).

Regarding `Cc1ccc2sc(N(CCN(C)C)C(=O)c3ccc(S(=O)(=O)N4CC(C)OC(C)C4)cc3)nc2c1C` (stereo not given) [N-[2-(dimethylamino)ethyl]-N-(4,5-dimethyl-1,3-benzothiazol-2-yl)-4-(2,6-dimethylmorpholin-4-yl)sulfonyl-benzamide;hydrochloride], the EC50 (in general, the concentration that produces a half-maximal response) is greater than 300 µM. The value for `CCCN(CCC)Cc1c(C(=O)NN=Cc2ccco2)nnn1-c1nonc1N` was greater than 300 µM; that for `COc1ccc2nc(C)cc(N3CCOCC3)c2c1` [4-(6-methoxy-2-methyl-4-quinolinyl)morpholine] was greater than 300 µM; that for `Cn1c(SCc2cccc(Br)c2)nnc1-c1ccncc1` [4-[5-(3-Bromo-benzylsulfanyl)-4-methyl-4H-[1,2,4]triazol-3-yl]-pyridine] was greater than 300 µM. With `CC(NC(=O)/C=C/c1ccco1)c1nc2ccccc2n1Cc1ccccc1F` (stereo not given), the EC50 is greater than 300 µM. The value for `CCOc1ccc(OCC)c(NC(=O)CSc2nnc(C3CC3)n2CC)c1` [MLS001223718] was greater than 300 µM; that for `Cc1ccc(CSc2nnc(-c3ccncc3)o2)c(C)c1` [SMR000280552] was 14.5 µM; that for `Cc1ccc(C2c3c(C)noc3N=C3CC(C)(C)CC(=O)C32)cc1` (stereo not given) [MLS000568466] was greater than 300 µM. The value for `CC(C)Cn1nc(NC(=O)c2cccs2)c2cc3ccccc3nc21` [N-[1-(2-methylpropyl)-3-pyrazolo[3,4-b]quinolinyl]-2-thiophenecarboxamide] was 21.5 µM.

Molecule `CCOC(=O)c1c(S(=O)(=O)NCC(=O)Nc2ccccc2)c(C)n(C)c1C` [MLS001028712] gave an EC50 greater than 300 µM. The value for `CCn1c(SCC(=O)Nc2ccc(Br)cn2)nnc1C1CC1` [SMR000671057] was 75 µM. The molecule `COC(=O)c1ccccc1Nc1ccnc(Cl)n1` [methyl 2-[(2-chloropyrimidin-4-yl)amino]benzoate] registered an EC50 greater than 300 µM. The value for `CC(CC(=O)Nc1nnc(C(C)(C)C)s1)c1ccccc1` (stereo not given) [MLS001205585] was greater than 300 µM; that for `COC(=O)c1cn(NC(=O)c2cccnc2)c(=O)c2ccccc12` [1-keto-2-nicotinamido-isoquinoline-4-carboxylic acid methyl ester] was greater than 300 µM; that for `Cc1ccc(S(=O)(=O)CCSc2n[nH]c(=O)n2-c2ccc3c(c2)OCCO3)cc1` [SMR000456166] was 74.4 µM.

For the molecule `Cc1cnc(C(=O)OCC(=O)N2c3ccccc3CC2C)cn1` (stereo not given) [[2-(2-methyl-2,3-dihydroindol-1-yl)-2-oxoethyl] 5-methylpyrazine-2-carboxylate], the half-maximal effective concentration (EC50) is greater than 300 µM. The value for `CCOC(=O)COn1c(=O)c(-c2cccs2)[n+]([O-])c2ccccc21` was greater than 300 µM; that for `CC(=O)Oc1ccc2occ(C(=O)c3cccs3)c2c1` [SMR000106284] was greater than 300 µM; that for `Cc1ccc(NC2=CC(=O)CC(C)(C)C2)cc1C` [3-(3,4-dimethylanilino)-5,5-dimethyl-1-cyclohex-2-enone] was greater than 300 µM. The value for `CCN1CCN(c2cc(C)c3cc(NC(=O)c4cc(OC)cc(OC)c4)ccc3n2)CC1` [N-[2-(4-ethylpiperazin-1-yl)-4-methylquinolin-6-yl]-3,5-dimethoxybenzamide] was greater than 300 µM; that for `CCSc1nc(N)nc(-c2cccs2)c1C#N` [2-amino-4-ethylsulfanyl-6-thiophen-2-ylpyrimidine-5-carbonitrile] was greater than 300 µM; that for `CCCN(CCC)Cc1c(C(=O)NN=Cc2ccncc2)nnn1-c1nonc1N` [1-(4-amino-1,2,5-oxadiazol-3-yl)-5-[(dipropylamino)methyl]-N-(pyridin-4-ylmethylideneamino)triazole-4-carboxamide] was 0.879 µM.

The molecule `CN(C)Cc1c(O)ccc2c1O/C(=C\C=C\c1ccccc1)C2=O` [7-Dimethylaminomethyl-6-hydroxy-2-[(E)-3-phenyl-prop-2-en-(Z)-ylidene]-benzofuran-3-one] showed an EC50 of 31.4 µM.

For `CC(c1ccccc1)n1c(CCCO)nc2ccccc21` (stereo not given) [3-[1-(1-Phenyl-ethyl)-1H-benzoimidazol-2-yl]-propan-1-ol], the EC50 was greater than 300 µM. The value for `O=c1cc(-c2ccc(O)c(O)c2)oc2cc(O)cc(O)c12` [2-(3,4-dihydroxyphenyl)-5,7-dihydroxy-4H-chromen-4-one] was 3.81 µM; that for `Cc1ccc(Nc2nc(-c3ccncc3)nc3ccccc23)cc1` [MLS000769531] was greater than 300 µM. With `COc1ccc(N(CN2C(=O)C3CC=CCC3C2=O)C(=O)c2ccco2)cc1` (stereo not given) [N-[(1,3-dioxo-3a,4,7,7a-tetrahydroisoindol-2-yl)methyl]-N-(4-methoxyphenyl)-2-furancarboxamide] the figure was greater than 300 µM. `NS(=O)(=O)c1ccc(CCNC(=O)CSc2nc3ccsc3c(=O)n2C2CC2)cc1` [MLS000586542] displayed an EC50 greater than 300 µM. The value for `Cc1oc2c(CN(C)C)c(O)ccc2c(=O)c1-c1ccc2ccccc2n1` [8-[(dimethylamino)methyl]-2-methyl-7-oxidanyl-3-quinolin-2-yl-chromen-4-one] was greater than 300 µM. With `O=C(Nc1ccncc1)Nc1ccncc1` [1,3-bis(4-pyridyl)urea] the figure was greater than 300 µM. The value for `COc1cccc2cc(CC(=O)c3ccccc3)c(=O)oc12` [8-methoxy-3-(2-oxo-2-phenylethyl)-2H-chromen-2-one] was greater than 300 µM; that for `O=C(Nc1ccc(Cl)cc1)Nc1ccccn1` [1-(4-chlorophenyl)-3-(2-pyridinyl)urea] was 43.7 µM; that for `CCSc1nc2sc3c(c2c(=O)n1-c1ccccc1)CCN(C)C3` [2-Ethylsulfanyl-7-methyl-3-phenyl-5,6,7,8-tetrahydro-3H-9-thia-1,3,7-triaza-fluoren-4-one] was greater than 300 µM. On to `Cc1ccnc(NC(=O)Cc2ccc([N+](=O)[O-])cc2)c1` [N-(4-methylpyridin-2-yl)-2-(4-nitrophenyl)ethanamide], for which a half-maximal effect (EC50) was put at 21.4 µM. `O=C(NCCc1ccccc1)c1cccc(Br)c1`: the EC50 was greater than 300 µM. With `Cc1cccc(COc2ccc(/C=C3/C(=O)N(C)C(=S)N3C)cc2)c1` [MLS001164511] the figure was greater than 300 µM; with `COCc1c(C(N)=O)nnn1-c1nonc1N` [MLS000089737], greater than 300 µM; with `COC(=O)CSc1ccc2nnc(-c3ccc(F)cc3)n2n1` [methyl 2-[[3-(4-fluorophenyl)-[1,2,4]triazolo[4,3-b]pyridazin-6-yl]sulfanyl]ethanoate], 9.3 µM. The value for `COc1cc(OC)c2c(-c3ccccc3)cc(=O)oc2c1` [5,7-dimethoxy-4-phenyl-chromen-2-one] was greater than 300 µM; that for `CCCn1nc(NC(=O)c2cccs2)c2cc3ccc(C)cc3nc21` [N-(7-methyl-1-propylpyrazolo[3,4-b]quinolin-3-yl)thiophene-2-carboxamide] was greater than 300 µM. The value for `Cc1ccc(S(=O)(=O)N2CN(Cc3ccco3)c3nc4ccccc4nc32)cc1` [SMR000145587] was greater than 300 µM. Molecule `COc1ccc(C=C2SC(Nc3ccccc3OC)=NC2=O)cc1` [SMR000517219] gave an EC50 greater than 300 µM. The value for `O=C(COc1ccccc1)Nc1ccc2c(c1)C(=O)N(CC1CCCO1)C2=O` (stereo not given) [SMR000291909] was greater than 300 µM. Consider `Cc1ccc(OCCN(C)C(=O)C2CCC(=O)N(CCCN3CCOCC3)C2)cc1` (stereo not given), for which the EC50 is greater than 300 µM.

`CCN(CC)Cc1c(C(=O)NN=Cc2cccnc2)nnn1-c1nonc1N` [1-(4-amino-1,2,5-oxadiazol-3-yl)-5-(diethylaminomethyl)-N-(3-pyridinylmethylideneamino)-4-triazolecarboxamide] came in with an EC50 of 9.17 µM. With `CCN1CCN(c2cc(C)c3cc(NC(=O)CCC(=O)Nc4ccc(OC)cc4OC)ccc3n2)CC1` [N'-(2,4-dimethoxyphenyl)-N-[2-(4-ethyl-1-piperazinyl)-4-methyl-6-quinolinyl]butanediamide] the figure was greater than 300 µM. As for `COCCn1c(SCC(=O)NC(=O)NC(C)C)nc2ccccc21` [2-[1-(2-methoxyethyl)benzimidazol-2-yl]sulfanyl-N-(propan-2-ylcarbamoyl)ethanamide], the EC50 was greater than 300 µM.

`COc1ccc(C(=O)Nc2ccc([N+](=O)[O-])cn2)cc1OC` [3,4-dimethoxy-N-(5-nitropyridin-2-yl)benzamide] came in with an EC50 greater than 300 µM. With `CCOC(=O)c1ccc2c(c1)[n+](CC)c(/C=C/N(C)c1ccccc1)n2CC` [MLS000561766] the figure was greater than 300 µM; with `CCN1CCN(CCCNC(=O)c2ccc3c(c2)NC(=O)c2ccccc2S3)CC1` [N-[3-(4-ethylpiperazin-1-yl)propyl]-6-oxo-5H-benzo[b][1,4]benzothiazepine-3-carboxamide], greater than 300 µM; with `Cc1[nH]nc2c1C(c1ccc(O)cc1)C1C(=O)CC(C)(C)CC1=N2` (stereo not given), 2.06 µM. With `CCn1nc(NC(=O)CC(C)C)c2cc3ccc(C)cc3nc21` [N-(1-ethyl-7-methylpyrazolo[3,4-b]quinolin-3-yl)-3-methylbutanamide] the figure was greater than 300 µM; with `Cc1cccc(Nc2nc(NCC3CCCO3)nc(N)c2[N+](=O)[O-])c1` (stereo not given) [5-Nitro-N-(tetrahydro-furan-2-ylmethyl)-N'-m-tolyl-pyrimidine-2,4,6-triamine], 4.11 µM; with `CC1(C)CC(=O)C=C(Nc2ccc(Br)cn2)C1` [3-[(5-bromopyridin-2-yl)amino]-5,5-dimethylcyclohex-2-en-1-one], greater than 300 µM. `COC(=O)C1=C(C)N(CCc2cc(OC)c(OC)c(OC)c2)C(=O)N[C@H]1c1ccccc1` [methyl (6S)-4-methyl-2-oxo-6-phenyl-3-[2-(3,4,5-trimethoxyphenyl)ethyl]-1,6-dihydropyrimidine-5-carboxylate] registered an EC50 greater than 300 µM. The value for `c1ccc(-c2nc(-c3ccco3)n3ccccc23)cc1` [MLS000392030] was greater than 300 µM; that for `COc1ccc(CNC(=O)CN(Cc2ccco2)C(=O)CCC(=O)Nc2ccccn2)cc1` [SMR000600509] was greater than 300 µM. Consider `COc1ccc(-n2c(Cc3cccn3C)nnc2SCC(=O)NCC2CCCO2)cc1` (stereo not given) [2-[[4-(4-methoxyphenyl)-5-[(1-methylpyrrol-2-yl)methyl]-1,2,4-triazol-3-yl]sulfanyl]-N-(oxolan-2-ylmethyl)acetamide], for which the EC50 is greater than 300 µM.

`COc1cccc(NC(=O)NNS(=O)(=O)c2ccc(OC)cc2OC)c1` [SMR000679286] yielded an EC50 greater than 300 µM.
